These results are taken from patent US20240216317A1, “COMPOSITION FOR PREVENTING, AMELIORATING OR TREATING INFLAMMATORY BOWEL DISEASE COMPRISING COMPOUND ISOLATED FROM ISODON EXCISUS AS EFFECTIVE COMPONENT” (HEALINNOLS INC., priority 2022, published 2024).

Assay [1] has as its system TNF-α. Nature of the assay: TNF-α mRNA expression (qPCR) in zebra fish animal model of DSS-induced inflammatory bowel disease. It counts as in vivo, zebra fish (Danio rerio: AB). The note with it: FIG. 5; for expression amount of TNF-α compared to DSS model group: zebra fish larvae, 0.5% DSS, 5 hours treatment, Chemical formula 1 0.3 μM and 1 μM. The method, then:
As a zebra fish animal model of inflammatory bowel disease, wild-type zebra fish (Danio rerio: AB) was used, which was kept in an exclusive breeding facility at conditions including light/dark cycle of 14 hours/10 hours and temperature of 28° C. All the animal experiments were carried out according to the protocol of Ethics Committee for Animal Expectation, Healinno-LS (Registration No.: AEC-20210720-0001), and all the materials were sterilized first before they are used for experiment.
According to a treatment with 0.5% DSS (dextran sulfate sodium, M.W. 36,000-50,000, #160110, MP), which induces “ulcerative colitis” as inflammatory bowel disease by creating a damage in colonic epithelial cells, a zebra fish was induced to have inflammatory bowel disease. Then, by threating the zebra fish with the compound represented by Chemical formula 1 of the present invention at different concentrations (0.3 μM and 1 μM), inhibitory activity on inflammatory bowel disease was examined.
As a zebra fish animal model of DSS-induced ulcerative colitis, zebra fish larvae 3 days after fertilization (3 dpf; days post fertilization) were used. 3 dpf zebra fish larvae were added to a 24-well plate, i.e., 20 larvae per well, and treated with 0.5% DSS to induce ulcerative colitis. After keeping them to 6 dpf zebra fish larva period, DSS was removed, and then they were treated for 5 hours with the compound represented by Chemical formula 1 of the present invention.
The zebra fish larvae which have been treated with the compound represented by Chemical formula 1 of the present invention were then added with TRIzol reagent (300 μl), and then homogenized by using a tissue homogenizer (G20, GINKO). Homogenized zebra fish larvae were maintained for 5 minutes at room temperature, and then treated with chloroform (60 μl). After removing proteins and cell debris, the mixture was centrifuged for 15 minutes at 12,000×g, 4° C. […] Purity and concentration were measured by using a microplate reader (FLUOstar omega, BMG Labtech), and the extracted total RNA was kept at −80° C. […]
For orientation: Real-time PCR tracks product formation cycle by cycle.

Assay [2] concerns the target T1, RIPK2 (Homo sapiens, UniProt O43353).
T1 construct: Caco-2 cells were dissolved by adding buffer solution for degradation; endogenous in cells; host or cells: Caco-2
Nature of the assay: Inhibitory activity on RIPK2 phosphorylation using Western blot in Caco-2 cells. As to conditions: FIG. 1. It counts as cell-based. The method, then: Caco-2 cells were adjusted to have density of 2×10^5 cells/ml. Suspension of the cells (0.5 ml) was aliquoted in apical side membrane phase of a transwell insert 12-well plate. To the basolateral side phase, 1.5 ml of culture medium were added. While replacing the medium with fresh one, once per 2 or 3 days, culture was continued for 21 days approximately, i.e., till to have cell division and suitable TEER (transepithelial electrical resistance) value of monolayer.
For measuring the electric resistance (TEER value, Ω·cm^2) between the apical side and basolateral side, EVOM resistance meter (EVOM2, WPI) was employed.
Once the TEER value of Caco-2 cells is 200 Ω·cm^2 or higher, MDP inside the insert was treated for 24 hours with the compound represented by Chemical formula 1 of the present invention. After washing Caco-2 cells inside the insert with 1×PBS, they were treated with trypsin. After centrifuge and washing with cold 1×PBS, Caco-2 cells were dissolved by adding buffer solution for degradation (50 mM Tris-HCl (pH 8.0), 5 mM EDTA, 15 mM NaCl, 1% NP-40, 1 mM PMSF) followed by centrifuge for 20 minutes at 12,000 rpm, 4° C. Only the supernatant was then collected and protein quantification was carried out by using BCA protein assay kit. […]

T1 sequence (O43353 whole entry): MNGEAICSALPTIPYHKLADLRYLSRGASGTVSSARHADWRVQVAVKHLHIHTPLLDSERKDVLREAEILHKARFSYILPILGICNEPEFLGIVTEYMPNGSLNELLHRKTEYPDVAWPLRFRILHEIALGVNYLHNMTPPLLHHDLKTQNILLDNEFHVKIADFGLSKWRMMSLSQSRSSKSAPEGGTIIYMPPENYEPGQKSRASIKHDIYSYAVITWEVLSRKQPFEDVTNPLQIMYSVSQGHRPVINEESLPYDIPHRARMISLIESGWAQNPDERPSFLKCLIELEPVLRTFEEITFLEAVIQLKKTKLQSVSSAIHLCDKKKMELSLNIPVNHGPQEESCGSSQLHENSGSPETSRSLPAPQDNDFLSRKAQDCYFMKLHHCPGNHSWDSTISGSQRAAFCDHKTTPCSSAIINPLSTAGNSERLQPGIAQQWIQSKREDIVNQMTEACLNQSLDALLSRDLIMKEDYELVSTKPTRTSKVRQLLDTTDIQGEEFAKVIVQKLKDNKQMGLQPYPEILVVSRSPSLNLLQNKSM

On to `COC(=O)C[C@H](OC(=O)/C=C/c1ccc(O)c(O)c1)c1ccc(O)c(O)c1` [Compound 1, 3-[3,4-dihydroxyphenyl]acrylic acid 1-[3,4-dihydroxyphenyl]-2-methoxycarbonylethyl ester], for which the “reduction of transcription amount of proinflammatory cytokines” value in assay [1] (zebra fish DSS model, TNF-α and IL-1β, compared with 5-ASA and prednisolone) is “much lower concentration than 5-ASA and prednisolone”. For the same compound, the “expression amount of TNF-α compared to DSS model group” value in assay [1] was “statistically significantly lower”. Further, the “inhibitory activity on RIPK2 phosphorylation relative to gefitinib (positive control)” value in assay [2] was “at least 2 times”. Besides, in assay [2] (MDP, 24 hours treatment), the “inhibition of activation of RIPK2 (phosphorylation)” value is given as “can inhibit the activation of RIPK2”.
On to `Nc1ccc(O)c(C(=O)O)c1` [Compound 5-ASA, 5-aminosalicylic acid, reference compound], for which, in assay [1], the “expression amount of TNF-α compared to DSS model group” value was “statistically significantly lower”.
